Read-outs that look alike come from different tables or passages of the source. Starred links: 1 amine or outer side, 2 acyl side, 3 side chain; linkers in the order of their positions; H or OH if unused. Non-standard residues stand in square brackets, D forms with d. Residues, ends and D or L forms follow the SMILES beside them. Groups on a side chain read outwards from the residue. *: point of attachment. C20 diacid = O=C(O)CCCCCCCCCCCCCCCCCCC(=O)*; C18 diacid = O=C(O)CCCCCCCCCCCCCCCCC(=O)*; αMePhe(2-F) = C[C@](N)(Cc1ccccc1F)C(=O)O; γGlu = O=C(O)[C@H](CCC(=O)[*:2])N[*:1]; NMeY = CN[C@@H](Cc1ccc(O)cc1)C(=O)O; αMe4Pal = C[C@](N)(Cc1ccncc1)C(=O)O; αMeY = C[C@](N)(Cc1ccc(O)cc1)C(=O)O; αMeF = C[C@](N)(Cc1ccccc1)C(=O)O; 4Pal = N[C@@H](Cc1ccncc1)C(=O)O; αMeL = CC(C)C[C@](C)(N)C(=O)O; αMeS = C[C@](N)(CO)C(=O)O; Orn = NCCC[C@H](N)C(=O)O; AEEA = NCCOCCOCC(=O)O; Aib = CC(C)(N)C(=O)O
What was measured:
Type in all cases: cell-based
[1] = biological target: human GcgR (Homo sapiens, UniProt P47871); experiment: Functional cAMP activity in the presence of 1% HSA; conditions: read-out: cAMP Rel EC50, hGcgR
[2] = biological target: T1, hGLP-1R (Homo sapiens, UniProt P43220); experiment: Functional cAMP activation in the presence of 0.1% casein (no HSA); conditions: read-out: Relative cAMP EC50, hGLP-1R;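 note: intracellular cAMP rise after 30 min at 37 °C read by HTRF, normalized between buffer only (0%) and maximal control ligand (100%), four-parameter variable-slope fit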
[3] = biological target: T2, hGIPR (Homo sapiens, UniProt P48546); experiment: as above; conditions: read-out: Relative cAMP EC50, hGIPR;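 note: intracellular cAMP rise after 30 min at 37 °C read by HTRF against a standard curve, scaled between buffer alone (0%) and top control ligand concentration (100%), four-parameter fit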
T2 sequence (P48546 22-466): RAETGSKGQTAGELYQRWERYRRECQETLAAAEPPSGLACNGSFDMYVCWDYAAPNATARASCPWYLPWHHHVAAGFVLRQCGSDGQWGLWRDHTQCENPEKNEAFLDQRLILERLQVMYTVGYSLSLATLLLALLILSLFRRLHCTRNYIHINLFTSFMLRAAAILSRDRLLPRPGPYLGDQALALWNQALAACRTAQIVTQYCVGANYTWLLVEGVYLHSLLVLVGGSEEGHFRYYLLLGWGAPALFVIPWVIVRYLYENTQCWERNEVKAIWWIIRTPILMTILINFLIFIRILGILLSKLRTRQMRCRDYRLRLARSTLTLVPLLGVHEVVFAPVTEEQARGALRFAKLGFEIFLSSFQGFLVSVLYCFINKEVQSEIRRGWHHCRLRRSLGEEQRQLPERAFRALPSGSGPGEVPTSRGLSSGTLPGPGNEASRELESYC

[4] = biological target: hGcgR (Homo sapiens, UniProt P47871); experiment: as above; conditions: read-out: Relative cAMP EC50, hGcgR;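 note: intracellular cAMP rise after 30 min at 37 °C, read by HTRF against a cAMP standard curve, scaled from buffer only (0%) to maximal control ligand response (100%)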
[5] = biological target: T2, hGIPR; experiment: Functional cAMP activity in the presence of 1% HSA; conditions: read-out: cAMP Rel EC50, hGIPR
[6] = biological target: T1, hGLP-1R; experiment: Functional cAMP activity in the presence of 1% HSA; conditions: read-out: cAMP Rel EC50, hGLP-1R
[7] = in the presence of 0.1% casein (no HSA), geometric mean

T1 sequence (P43220 24-463): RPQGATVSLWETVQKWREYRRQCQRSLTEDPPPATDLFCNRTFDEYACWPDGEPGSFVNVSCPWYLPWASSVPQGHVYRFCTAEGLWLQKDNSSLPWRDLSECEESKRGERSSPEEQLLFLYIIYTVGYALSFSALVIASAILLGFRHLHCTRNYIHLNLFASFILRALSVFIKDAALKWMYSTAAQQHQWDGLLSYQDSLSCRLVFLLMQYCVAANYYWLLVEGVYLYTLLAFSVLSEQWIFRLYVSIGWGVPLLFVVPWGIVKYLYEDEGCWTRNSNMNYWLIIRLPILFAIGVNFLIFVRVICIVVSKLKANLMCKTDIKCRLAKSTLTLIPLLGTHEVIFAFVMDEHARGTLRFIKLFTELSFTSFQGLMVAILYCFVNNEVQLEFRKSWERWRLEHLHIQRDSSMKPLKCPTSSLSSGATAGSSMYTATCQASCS
Chain of human GcgR (P47871 26-477): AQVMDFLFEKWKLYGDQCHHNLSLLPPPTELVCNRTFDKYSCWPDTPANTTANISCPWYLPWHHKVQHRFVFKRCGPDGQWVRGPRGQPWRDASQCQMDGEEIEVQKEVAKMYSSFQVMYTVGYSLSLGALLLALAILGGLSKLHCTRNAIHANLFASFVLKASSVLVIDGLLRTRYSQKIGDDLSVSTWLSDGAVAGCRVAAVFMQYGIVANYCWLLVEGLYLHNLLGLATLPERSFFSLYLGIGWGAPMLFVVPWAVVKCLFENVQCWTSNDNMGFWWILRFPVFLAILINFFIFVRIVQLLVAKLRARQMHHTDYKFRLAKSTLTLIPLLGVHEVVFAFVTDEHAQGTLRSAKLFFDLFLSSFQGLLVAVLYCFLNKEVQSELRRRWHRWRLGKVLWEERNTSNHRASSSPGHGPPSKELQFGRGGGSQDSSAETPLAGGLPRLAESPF
Chain of hGcgR (P47871 26-477): as above

| Compound | EC50 [1] | EC50 [2] | EC50 [3] | EC50 [4] | EC50 [5] | EC50 [6] | EC50 [2, 7] | EC50 [3, 7] | EC50 [4, 7] |
| --- | --- | --- | --- | --- | --- | --- | --- | --- | --- |
| H-Y[Aib]QGTFTSDYSI[αMeL]LDKQAAK([AEEA-AEEA-γGlu-C20 diacid])QFVEWLIAGGPSSGEPPPAEG-NH2 [Example 332] | 3340 nM | – | – | – | 78.2 nM | 298 nM | 1.24 nM | 0.413 nM | 11.8 nM |
| H-Y[Aib]QGT[αMePhe(2-F)]TSDYSILLDKK([AEEA-γGlu-C18 diacid])AQ[Aib]AFIE[4Pal]LEEGGPSSGAPPPSEG-NH2 [Example 411] | 1170 nM | 0.709 nM | 0.058 nM | 3.94 nM | 23.8 nM | 82.1 nM | – | – | – |
| H-Y[Aib]QGTFTSDFS[Orn][αMeL]LDKK([AEEA-γGlu-C18 diacid])AQ[Aib]AFIEYLLEGGPSSGAPPPGGSE-NH2 [Example 65] | 808 nM | – | – | – | 30.2 nM | 462 nM | 4.21 nM | 0.739 nM | 6.49 nM |
| CC[C@H](C)[C@H](NC(=O)[C@H](Cc1ccccc1)NC(=O)[C@H](C)NC(=O)C(C)(C)NC(=O)[C@H](CCC(N)=O)NC(=O)[C@H](C)NC(=O)[C@H](CCCCNC(=O)CC[C@H](NC(=O)CC[C@H](NC(=O)CCCCCCCCCCCCCCCCC(=O)O)C(=O)O)C(=O)O)NC(=O)[C@H](CCCCN)NC(=O)[C@H](CC(=O)O)NC(=O)[C@H](CC(C)C)NC(=O)[C@H](CC(C)C)NC(=O)[C@@H](NC(=O)[C@H](CO)NC(=O)[C@H](Cc1ccncc1)NC(=O)[C@H](CC(=O)O)NC(=O)[C@H](CO)NC(=O)[C@@H](NC(=O)[C@](C)(Cc1ccccc1F)NC(=O)[C@@H](NC(=O)CNC(=O)[C@H](CCC(N)=O)NC(=O)C(C)(C)NC(=O)[C@@H](N)Cc1ccc(O)cc1)[C@@H](C)O)[C@@H](C)O)[C@@H](C)CC)C(=O)N[C@@H](CCC(=O)O)C(=O)N[C@@H](Cc1ccc(O)cc1)C(=O)N[C@@H](CC(C)C)C(=O)N[C@@H](CCC(=O)O)C(=O)N[C@@H](CCC(=O)O)C(=O)NCC(=O)NCC(=O)N1CCC[C@H]1C(=O)N[C@@H](CO)C(=O)N[C@@H](CO)C(=O)NCC(=O)N[C@@H](C)C(=O)N1CCC[C@H]1C(=O)N1CCC[C@H]1C(=O)N1CCC[C@H]1C(=O)N[C@@H](CCC(=O)O)C(=O)NCC(=O)N[C@H](C(=O)NCC(=O)N[C@@H](CCC(=O)O)C(N)=O)[C@@H](C)O [Example 660] | 455 nM | 1.27 nM | 0.0646 nM | 7.38 nM | 4.64 nM | 76.9 nM | – | – | – |
| CC[C@H](C)[C@H](NC(=O)[C@H](Cc1ccccc1)NC(=O)[C@H](C)NC(=O)C(C)(C)NC(=O)[C@H](CCC(N)=O)NC(=O)[C@H](C)NC(=O)[C@H](CCCCNC(=O)COCCOCCNC(=O)CC[C@H](NC(=O)CCCCCCCCCCCCCCCCC(=O)O)C(=O)O)NC(=O)[C@H](CCCCN)NC(=O)[C@H](CC(=O)O)NC(=O)[C@H](CC(C)C)NC(=O)[C@](C)(CC(C)C)NC(=O)[C@H](CCCCN)NC(=O)[C@H](CO)NC(=O)[C@H](Cc1ccncc1)NC(=O)[C@H](CC(=O)O)NC(=O)[C@H](CO)NC(=O)[C@@H](NC(=O)[C@H](Cc1ccccc1)NC(=O)[C@@H](NC(=O)CNC(=O)[C@H](CCC(N)=O)NC(=O)C(C)(C)NC(=O)[C@@H](N)Cc1ccc(O)cc1)[C@@H](C)O)[C@@H](C)O)C(=O)N[C@@H](CCC(=O)O)C(=O)N[C@@H](Cc1ccc(O)cc1)C(=O)N[C@@H](CC(C)C)C(=O)N[C@H](C(=O)N[C@@H](CCC(=O)O)C(=O)N[C@H](C)C(=O)NCC(=O)N[C@@H](CCC(=O)O)C(=O)N[C@@H](CO)C(=O)N[C@@H](CO)C(=O)NCC(=O)N[C@@H](C)C(=O)N1CCC[C@H]1C(=O)N1CCC[C@H]1C(=O)N1CCC[C@H]1C(=O)N[C@@H](CO)C(=O)NCC(=O)N[C@@H](CO)C(N)=O)[C@@H](C)CC [Example 283] | 1470 nM | – | – | – | 47.2 nM | 233 nM | 1.16 nM | 0.225 nM | 9.73 nM |
| H-Y[Aib]QGTFTSD[4Pal]SR[αMeL]LDKK([AEEA-γGlu-C18 diacid])AQ[Aib]AFIE[αMeY]LIEGGPSSGAPPPSGS-NH2 [Example 837] | 2060 nM | – | – | – | 20.7 nM | 69.6 nM | 0.551 nM | 0.209 nM | 7.24 nM |
| H-Y[Aib]QGT[αMePhe(2-F)]TSD[4Pal]SI[αMeL]LD[Orn]K([AEEA-γGlu-C18 diacid])AQ[Aib][Orn]FIEYLIEGGPSSGEPPPSEG-NH2 [Example 489] | 523 nM | 0.172 nM | 0.0121 nM | 2.31 nM | 1.25 nM | 11.8 nM | – | – | – |
| CC[C@H](C)[C@H](NC(=O)[C@H](Cc1ccccc1)NC(=O)[C@H](C)NC(=O)C(C)(C)NC(=O)[C@H](CCC(N)=O)NC(=O)[C@H](C)NC(=O)[C@H](CCCCNC(=O)COCCOCCNC(=O)CC[C@H](NC(=O)CCCCCCCCCCCCCCCCC(=O)O)C(=O)O)NC(=O)[C@H](CCCCN)NC(=O)[C@H](CC(=O)O)NC(=O)[C@H](CC(C)C)NC(=O)[C@H](CC(C)C)NC(=O)[C@H](CO)NC(=O)[C@H](CO)NC(=O)[C@H](Cc1ccc(O)cc1)NC(=O)[C@H](CC(=O)O)NC(=O)[C@H](CO)NC(=O)[C@@H](NC(=O)[C@](C)(Cc1ccccc1F)NC(=O)[C@@H](NC(=O)CNC(=O)[C@H](CCC(N)=O)NC(=O)C(C)(C)NC(=O)[C@@H](N)Cc1ccc(O)cc1)[C@@H](C)O)[C@@H](C)O)C(=O)N[C@@H](CCC(=O)O)C(=O)N[C@@H](Cc1ccc(O)cc1)C(=O)N[C@@H](CC(C)C)C(=O)N[C@@H](CCC(=O)O)C(=O)N[C@@H](CCC(=O)O)C(=O)NCC(=O)NCC(=O)N1CCC[C@H]1C(=O)N[C@@H](CO)C(=O)N[C@@H](CO)C(=O)NCC(=O)N[C@@H](C)C(=O)N1CCC[C@H]1C(=O)N1CCC[C@H]1C(=O)N1CCC[C@H]1C(=O)N[C@@H](CO)C(N)=O [Example 409] (H-Y[Aib]QGT[αMePhe(2-F)]TSDYSSLLDKK([AEEA-γGlu-C18 diacid])AQ[Aib]AFIEYLEEGGPSSGAPPPS-NH2) | 1190 nM | 0.484 nM | 0.363 nM | 7.92 nM | 66.6 nM | 41.7 nM | – | – | – |

More lines, main results first:

| EC50 [1] | EC50 [2] | EC50 [3] | EC50 [4] | EC50 [5] | EC50 [6] | Compound | EC50 [2, 7] | EC50 [3, 7] | EC50 [4, 7] |
| --- | --- | --- | --- | --- | --- | --- | --- | --- | --- |
| 485 nM | 0.259 nM | 0.0362 nM | 1.49 nM | 11.7 nM | 37.2 nM | CC[C@H](C)[C@H](NC(=O)[C@H](Cc1ccccc1)NC(=O)[C@H](C)NC(=O)C(C)(C)NC(=O)[C@H](CCC(N)=O)NC(=O)[C@H](C)NC(=O)[C@H](CCCCNC(=O)COCCOCCNC(=O)CC[C@H](NC(=O)CCCCCCCCCCCCCCCCC(=O)O)C(=O)O)NC(=O)[C@H](CCCCN)NC(=O)[C@H](CC(=O)O)NC(=O)[C@H](CC(C)C)NC(=O)[C@H](CC(C)C)NC(=O)[C@@H](NC(=O)[C@H](CO)NC(=O)[C@H](Cc1ccc(O)cc1)NC(=O)[C@H](CC(=O)O)NC(=O)[C@H](CO)NC(=O)[C@@H](NC(=O)[C@](C)(Cc1ccccc1F)NC(=O)[C@@H](NC(=O)CNC(=O)[C@H](CCC(N)=O)NC(=O)C(C)(C)NC(=O)[C@@H](N)Cc1ccc(O)cc1)[C@@H](C)O)[C@@H](C)O)[C@@H](C)CC)C(=O)N[C@@H](CCC(=O)O)C(=O)N[C@@H](Cc1ccc(O)cc1)C(=O)N[C@@H](CC(C)C)C(=O)N[C@@H](CCC(=O)O)C(=O)N[C@@H](CCC(=O)O)C(=O)NCC(=O)NCC(=O)N1CCC[C@H]1C(=O)N[C@@H](CO)C(=O)N[C@@H](CO)C(=O)NCC(=O)N[C@@H](CCC(=O)O)C(=O)N1CCC[C@H]1C(=O)N1CCC[C@H]1C(=O)N1CCC[C@H]1C(=O)N[C@@H](CO)C(N)=O [Example 407] | – | – | – |
| 239 nM | 0.395 nM | 0.00722 nM | 1.59 nM | 1.29 nM | 43.6 nM | H-Y[Aib]QGT[αMePhe(2-F)]TSD[4Pal][αMeS]I[αMeL]LD[Orn]K([AEEA-γGlu-C18 diacid])AQ[αMe4Pal]EFI[dE][αMeY]LIEGGPSSGEPPPEGGGE-NH2 [Example 760] | – | – | – |
| 1440 nM | – | – | – | 70.7 nM | 523 nM | H-Y[Aib]QGTFTSDYSK[αMeL]LDKK([AEEA-γGlu-C20 diacid])AQQAFIEYLLAGGPSSGEPPPSGE-NH2 [Example 344] | 2.56 nM | 0.406 nM | 9.05 nM |
| 1700 nM | – | – | – | 40.2 nM | 380 nM | H-[NMeY][Aib]QGT[αMeF]TSDYSILLDKIAAK([AEEA-AEEA-γGlu-C20 diacid])AFIEYLIEGGPSSGEPPPSEG-NH2 [Example 299] | 0.963 nM | 0.137 nM | 2.54 nM |
| 327 nM | 0.268 nM | 0.0118 nM | 2.18 nM | 1.26 nM | 27.2 nM | H-Y[Aib]QGT[αMePhe(2-F)]TSD[4Pal]SI[αMeL]LD[Orn]K([AEEA-γGlu-C18 diacid])AQ[αMe4Pal][Orn]FI[dE][αMeY]LIEGGPSSGDPPPEGTGE-NH2 [Example 732] | – | – | – |
